Data published in ChEMBL document CHEMBL4507301 (2021).

Key:
[1] = molecular target: Cytoplasmic tyrosine-protein kinase BMX (Homo sapiens) (UniProt P51813); conditions: Compound concentration 1000.0 nM
[2] = molecular target: D(1B) dopamine receptor (Homo sapiens) (UniProt P21918); conditions: Compound concentration 10.0 uM
[3] = molecular target: Cyclin-dependent kinase 2 homolog (Plasmodium falciparum (isolate 3D7)) (UniProt P61075); conditions: Compound concentration 1000.0 nM
[4] = molecular target: Cyclin-dependent kinase 3 (Homo sapiens) (UniProt Q00526); conditions: Compound concentration 1000.0 nM
[5] = molecular target: SRSF protein kinase 1 (Homo sapiens) (UniProt Q96SB4); conditions: Compound concentration 1000.0 nM
[6] = molecular target: Ribosomal protein S6 kinase alpha-6 (Homo sapiens) (UniProt Q9UK32); conditions: Compound concentration 1000.0 nM
Chain of Ribosomal protein S6 kinase alpha-6 (Homo sapiens) (Q9UK32 whole entry): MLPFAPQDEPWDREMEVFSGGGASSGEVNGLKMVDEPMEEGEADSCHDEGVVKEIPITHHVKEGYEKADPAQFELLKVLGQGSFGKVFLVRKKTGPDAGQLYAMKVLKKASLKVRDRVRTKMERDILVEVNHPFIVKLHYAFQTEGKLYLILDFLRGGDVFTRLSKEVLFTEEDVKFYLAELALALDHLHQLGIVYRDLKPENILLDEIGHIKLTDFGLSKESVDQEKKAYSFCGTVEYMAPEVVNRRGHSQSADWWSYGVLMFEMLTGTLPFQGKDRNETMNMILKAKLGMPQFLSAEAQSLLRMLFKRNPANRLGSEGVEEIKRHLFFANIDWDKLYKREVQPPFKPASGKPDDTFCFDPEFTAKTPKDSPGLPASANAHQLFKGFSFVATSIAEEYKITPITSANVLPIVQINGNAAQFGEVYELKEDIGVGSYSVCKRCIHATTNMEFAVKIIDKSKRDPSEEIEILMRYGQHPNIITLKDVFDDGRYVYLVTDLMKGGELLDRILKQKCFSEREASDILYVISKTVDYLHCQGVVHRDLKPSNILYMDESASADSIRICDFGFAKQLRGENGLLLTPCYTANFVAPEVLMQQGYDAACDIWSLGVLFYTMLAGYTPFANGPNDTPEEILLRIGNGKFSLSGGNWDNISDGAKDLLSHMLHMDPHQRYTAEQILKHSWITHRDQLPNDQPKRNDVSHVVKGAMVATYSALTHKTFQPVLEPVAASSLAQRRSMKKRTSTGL

[7] = molecular target: Serine/threonine-protein kinase Sgk3 (Homo sapiens) (UniProt Q96BR1); conditions: Compound concentration 1000.0 nM
Chain of Serine/threonine-protein kinase Sgk3 (Homo sapiens) (Q96BR1 whole entry): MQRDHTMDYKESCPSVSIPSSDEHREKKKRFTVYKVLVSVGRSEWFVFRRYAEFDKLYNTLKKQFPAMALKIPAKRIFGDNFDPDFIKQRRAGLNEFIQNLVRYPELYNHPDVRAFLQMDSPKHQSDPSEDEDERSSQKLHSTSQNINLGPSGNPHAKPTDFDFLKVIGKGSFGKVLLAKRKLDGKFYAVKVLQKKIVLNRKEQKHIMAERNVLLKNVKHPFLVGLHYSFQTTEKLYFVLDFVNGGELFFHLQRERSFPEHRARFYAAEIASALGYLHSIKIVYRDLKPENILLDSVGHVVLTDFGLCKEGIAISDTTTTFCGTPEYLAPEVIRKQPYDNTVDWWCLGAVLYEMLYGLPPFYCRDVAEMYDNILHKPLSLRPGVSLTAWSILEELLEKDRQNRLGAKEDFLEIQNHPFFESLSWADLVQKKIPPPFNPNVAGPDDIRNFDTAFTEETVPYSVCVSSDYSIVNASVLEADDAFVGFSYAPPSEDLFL

[8] = molecular target: Cyclin-dependent kinase-like 2 (Homo sapiens) (UniProt Q92772); conditions: Compound concentration 1000.0 nM
[9] = molecular target: Mitogen-activated protein kinase 6 (Homo sapiens) (UniProt Q16659); conditions: Compound concentration 1000.0 nM
[10] = molecular target: Serine/threonine-protein kinase MRCK beta (Homo sapiens) (UniProt Q9Y5S2); conditions: Compound concentration 1000.0 nM
[11] = molecular target: Dual specificity mitogen-activated protein kinase kinase 5 (Homo sapiens) (UniProt Q13163); conditions: Compound concentration 1000.0 nM
[12] = molecular target: Mitogen-activated protein kinase 15 (Homo sapiens) (UniProt Q8TD08); conditions: Compound concentration 1000.0 nM
[13] = molecular target: Beta-2 adrenergic receptor (Homo sapiens) (UniProt P07550); conditions: Compound concentration 10.0 uM
[14] = molecular target: Dual specificity mitogen-activated protein kinase kinase 4 (Homo sapiens) (UniProt P45985); conditions: Compound concentration 1000.0 nM
[15] = molecular target: TGF-beta receptor type-1 (Homo sapiens) (UniProt P36897); conditions: Compound concentration 1000.0 nM
[16] = molecular target: Mitogen-activated protein kinase kinase kinase 9 (Homo sapiens) (UniProt P80192); conditions: Compound concentration 1000.0 nM
[17] = molecular target: Casein kinase I isoform gamma-2 (Homo sapiens) (UniProt P78368); conditions: Compound concentration 1000.0 nM
[18] = molecular target: Mitotic checkpoint serine/threonine-protein kinase BUB1 (Homo sapiens) (UniProt O43683); conditions: Compound concentration 1000.0 nM
[19] = molecular target: Rho-associated protein kinase 1 (Homo sapiens) (UniProt Q13464); conditions: Compound concentration 1000.0 nM
[20] = molecular target: Serine/threonine-protein kinase 32B (Homo sapiens) (UniProt Q9NY57); conditions: Compound concentration 1000.0 nM
[21] = molecular target: Receptor-interacting serine/threonine-protein kinase 1 (Homo sapiens) (UniProt Q13546); conditions: Compound concentration 1000.0 nM
[22] = molecular target: Tyrosine-protein kinase CSK (Homo sapiens) (UniProt P41240); conditions: Compound concentration 1000.0 nM
[23] = molecular target: Serine/threonine-protein kinase WNK1 (Homo sapiens) (UniProt Q9H4A3); conditions: Compound concentration 1000.0 nM
[24] = molecular target: Mitogen-activated protein kinase kinase kinase kinase 3 (Homo sapiens) (UniProt Q8IVH8); conditions: Compound concentration 1000.0 nM
[25] = molecular target: Serine/threonine-protein kinase Nek11 (Homo sapiens) (UniProt Q8NG66); conditions: Compound concentration 1000.0 nM
[26] = tested on: Phosphatidylinositol 4,5-bisphosphate 3-kinase catalytic subunit alpha isoform (Homo sapiens), P42336 [H1047L]; conditions: Compound concentration 1000.0 nM
Chain of Phosphatidylinositol 4,5-bisphosphate 3-kinase catalytic subunit alpha isoform (Homo sapiens), P42336 [H1047L] (P42336 whole entry H1047L, canonical isoform): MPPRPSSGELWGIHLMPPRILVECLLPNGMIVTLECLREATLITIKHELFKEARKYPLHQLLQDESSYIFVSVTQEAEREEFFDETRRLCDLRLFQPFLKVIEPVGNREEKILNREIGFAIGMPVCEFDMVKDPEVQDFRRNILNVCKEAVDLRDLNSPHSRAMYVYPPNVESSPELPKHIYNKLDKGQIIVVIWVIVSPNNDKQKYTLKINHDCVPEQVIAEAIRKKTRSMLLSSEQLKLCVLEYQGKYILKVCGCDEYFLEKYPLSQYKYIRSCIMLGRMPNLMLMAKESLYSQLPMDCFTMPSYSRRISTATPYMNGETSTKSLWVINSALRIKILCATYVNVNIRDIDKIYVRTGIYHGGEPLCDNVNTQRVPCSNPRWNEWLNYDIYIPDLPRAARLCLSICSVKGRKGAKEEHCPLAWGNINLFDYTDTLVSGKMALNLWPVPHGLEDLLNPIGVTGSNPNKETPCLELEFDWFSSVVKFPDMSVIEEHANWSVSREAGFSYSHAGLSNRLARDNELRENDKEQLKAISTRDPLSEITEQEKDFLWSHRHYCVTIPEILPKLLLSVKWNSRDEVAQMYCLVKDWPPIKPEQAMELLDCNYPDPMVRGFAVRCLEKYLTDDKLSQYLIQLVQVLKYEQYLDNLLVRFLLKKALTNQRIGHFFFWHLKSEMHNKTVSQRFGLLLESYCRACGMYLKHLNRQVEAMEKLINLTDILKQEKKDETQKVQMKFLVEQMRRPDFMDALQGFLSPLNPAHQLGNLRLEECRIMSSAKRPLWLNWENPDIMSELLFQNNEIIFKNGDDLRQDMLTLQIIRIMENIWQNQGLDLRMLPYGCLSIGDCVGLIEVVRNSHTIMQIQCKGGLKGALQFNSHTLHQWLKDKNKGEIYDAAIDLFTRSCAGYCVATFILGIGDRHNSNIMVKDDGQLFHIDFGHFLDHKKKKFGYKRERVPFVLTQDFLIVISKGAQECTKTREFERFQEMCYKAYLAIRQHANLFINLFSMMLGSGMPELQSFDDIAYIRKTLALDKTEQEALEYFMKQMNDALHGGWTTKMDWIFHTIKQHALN

[27] = molecular target: D(4) dopamine receptor (Homo sapiens) (UniProt P21917); conditions: Compound concentration 10.0 uM
[28] = molecular target: Beta-adrenergic receptor kinase 1 (Homo sapiens) (UniProt P25098); conditions: Compound concentration 1000.0 nM
[29] = molecular target: Serine/threonine-protein kinase WNK2 (Homo sapiens) (UniProt Q9Y3S1); conditions: Compound concentration 1000.0 nM
[30] = molecular target: Non-receptor tyrosine-protein kinase TYK2 (Homo sapiens) (UniProt P29597); conditions: Compound concentration 1000.0 nM
Chain of Non-receptor tyrosine-protein kinase TYK2 (Homo sapiens) (P29597 whole entry): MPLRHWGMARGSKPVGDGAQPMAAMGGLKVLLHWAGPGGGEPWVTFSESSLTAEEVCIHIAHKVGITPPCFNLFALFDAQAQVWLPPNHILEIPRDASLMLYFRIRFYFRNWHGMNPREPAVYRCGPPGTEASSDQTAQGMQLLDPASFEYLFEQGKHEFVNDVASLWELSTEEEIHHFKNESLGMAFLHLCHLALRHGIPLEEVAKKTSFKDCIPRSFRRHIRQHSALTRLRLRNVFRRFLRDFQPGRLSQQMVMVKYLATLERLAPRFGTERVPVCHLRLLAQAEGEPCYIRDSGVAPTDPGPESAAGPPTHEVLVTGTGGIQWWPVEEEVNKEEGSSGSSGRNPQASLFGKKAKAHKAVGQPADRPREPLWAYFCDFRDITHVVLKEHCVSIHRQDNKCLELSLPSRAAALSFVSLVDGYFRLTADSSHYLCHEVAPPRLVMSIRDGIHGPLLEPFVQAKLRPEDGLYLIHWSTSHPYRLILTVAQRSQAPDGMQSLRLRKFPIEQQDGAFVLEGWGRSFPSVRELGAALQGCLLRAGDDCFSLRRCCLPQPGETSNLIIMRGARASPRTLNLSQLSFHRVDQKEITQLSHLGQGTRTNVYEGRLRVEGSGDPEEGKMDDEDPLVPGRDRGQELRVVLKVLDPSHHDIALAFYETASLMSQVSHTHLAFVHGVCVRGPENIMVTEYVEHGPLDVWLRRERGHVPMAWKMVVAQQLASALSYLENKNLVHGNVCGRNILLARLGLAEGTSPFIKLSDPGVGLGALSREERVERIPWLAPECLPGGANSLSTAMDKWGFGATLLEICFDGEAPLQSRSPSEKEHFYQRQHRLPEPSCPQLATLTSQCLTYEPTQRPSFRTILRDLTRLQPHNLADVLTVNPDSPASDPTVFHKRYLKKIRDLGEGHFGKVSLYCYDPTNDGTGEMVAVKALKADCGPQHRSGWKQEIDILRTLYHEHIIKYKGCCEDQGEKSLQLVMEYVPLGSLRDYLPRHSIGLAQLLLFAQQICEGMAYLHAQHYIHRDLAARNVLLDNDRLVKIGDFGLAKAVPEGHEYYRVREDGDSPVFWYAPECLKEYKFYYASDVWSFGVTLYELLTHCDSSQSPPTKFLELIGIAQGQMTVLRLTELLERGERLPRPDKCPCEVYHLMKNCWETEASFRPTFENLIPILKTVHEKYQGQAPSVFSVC

[31] = molecular target: Interleukin-1 receptor-associated kinase 3 (Homo sapiens) (UniProt Q9Y616); conditions: Compound concentration 1000.0 nM
[32] = molecular target: Serine/threonine-protein kinase BRSK2 (Homo sapiens) (UniProt Q8IWQ3); conditions: Compound concentration 1000.0 nM
[33] = molecular target: Activin receptor type-1-like (Homo sapiens) (UniProt P37023); conditions: Compound concentration 1000.0 nM
[34] = molecular target: Angiopoietin-1 receptor (Homo sapiens) (UniProt Q02763); conditions: Compound concentration 1000.0 nM
[35] = molecular target: Myosin-IIIb (Homo sapiens) (UniProt Q8WXR4); conditions: Compound concentration 1000.0 nM
[36] = tested on: Mast/stem cell growth factor receptor Kit (Homo sapiens), P10721 [V559D,V654A]; conditions: Compound concentration 1000.0 nM
[37] = molecular target: Cyclin-dependent kinase 18 (Homo sapiens) (UniProt Q07002); conditions: Compound concentration 1000.0 nM
[38] = molecular target: Phosphatidylinositol 4,5-bisphosphate 3-kinase catalytic subunit gamma isoform (Homo sapiens) (UniProt P48736); conditions: Compound concentration 1000.0 nM
[39] = molecular target: Serine/threonine-protein kinase 4 (Homo sapiens) (UniProt Q13043); conditions: Compound concentration 1000.0 nM
Chain of Serine/threonine-protein kinase 4 (Homo sapiens) (Q13043 whole entry): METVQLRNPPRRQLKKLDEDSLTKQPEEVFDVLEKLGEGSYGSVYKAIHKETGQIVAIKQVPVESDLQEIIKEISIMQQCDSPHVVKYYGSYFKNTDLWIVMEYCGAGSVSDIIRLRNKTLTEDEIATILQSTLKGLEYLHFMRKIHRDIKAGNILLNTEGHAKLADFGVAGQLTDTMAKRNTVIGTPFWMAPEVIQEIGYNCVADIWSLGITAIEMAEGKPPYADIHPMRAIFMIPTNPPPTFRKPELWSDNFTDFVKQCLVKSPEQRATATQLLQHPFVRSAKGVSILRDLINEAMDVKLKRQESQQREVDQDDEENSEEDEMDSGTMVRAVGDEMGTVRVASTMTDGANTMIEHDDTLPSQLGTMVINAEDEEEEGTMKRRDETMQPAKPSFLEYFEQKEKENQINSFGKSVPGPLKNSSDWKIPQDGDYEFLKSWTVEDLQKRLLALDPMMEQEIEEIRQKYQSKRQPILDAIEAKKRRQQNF

[40] = tested on: Tyrosine-protein kinase ABL1 (Homo sapiens), P00519 [F317I]; conditions: Compound concentration 1000.0 nM
[41] = molecular target: Hormonally up-regulated neu tumor-associated kinase (Homo sapiens) (UniProt P57058); conditions: Compound concentration 1000.0 nM
[42] = molecular target: Dual serine/threonine and tyrosine protein kinase (Homo sapiens) (UniProt Q6XUX3); conditions: Compound concentration 1000.0 nM
[43] = molecular target: Serine/threonine-protein kinase B-raf (Homo sapiens) (UniProt P15056); conditions: Compound concentration 1000.0 nM
[44] = molecular target: Calcium/calmodulin-dependent protein kinase type II subunit beta (Homo sapiens) (UniProt Q13554); conditions: Compound concentration 1000.0 nM
[45] = molecular target: NUAK family SNF1-like kinase 2 (Homo sapiens) (UniProt Q9H093); conditions: Compound concentration 1000.0 nM
Chain of NUAK family SNF1-like kinase 2 (Homo sapiens) (Q9H093 whole entry): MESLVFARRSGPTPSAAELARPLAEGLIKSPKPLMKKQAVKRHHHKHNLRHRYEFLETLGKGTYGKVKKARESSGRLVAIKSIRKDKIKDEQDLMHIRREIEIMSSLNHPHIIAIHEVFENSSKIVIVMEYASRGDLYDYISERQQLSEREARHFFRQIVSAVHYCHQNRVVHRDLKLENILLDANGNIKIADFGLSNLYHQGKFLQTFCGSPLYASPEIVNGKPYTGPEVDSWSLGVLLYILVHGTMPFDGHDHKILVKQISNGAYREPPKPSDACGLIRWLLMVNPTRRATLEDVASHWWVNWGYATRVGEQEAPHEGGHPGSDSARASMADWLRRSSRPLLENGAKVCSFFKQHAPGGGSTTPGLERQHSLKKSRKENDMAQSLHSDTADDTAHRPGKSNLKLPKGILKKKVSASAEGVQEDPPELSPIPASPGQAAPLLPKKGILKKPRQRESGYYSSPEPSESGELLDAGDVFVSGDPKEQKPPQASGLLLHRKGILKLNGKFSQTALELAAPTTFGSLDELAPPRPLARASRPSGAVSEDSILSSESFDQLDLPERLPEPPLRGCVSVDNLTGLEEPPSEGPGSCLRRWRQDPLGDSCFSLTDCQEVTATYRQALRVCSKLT

Chain of Cyclin-dependent kinase 2 homolog (Plasmodium falciparum (isolate 3D7)) (P61075 whole entry): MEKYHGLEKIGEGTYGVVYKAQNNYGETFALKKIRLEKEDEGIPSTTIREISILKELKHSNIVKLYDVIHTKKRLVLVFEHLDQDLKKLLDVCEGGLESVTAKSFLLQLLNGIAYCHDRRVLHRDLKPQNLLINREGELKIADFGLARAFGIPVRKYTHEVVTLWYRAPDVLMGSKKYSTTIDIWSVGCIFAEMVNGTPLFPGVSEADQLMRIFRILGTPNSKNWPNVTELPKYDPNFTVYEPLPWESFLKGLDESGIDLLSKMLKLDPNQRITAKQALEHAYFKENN

Work on `C[C@H](c1cccc(C#N)c1)n1cc(Cl)cc(C(N)=O)c1=N` [(R)-9s] yielded a residual activity [1] of 77%, an inhibition [2] of 10.7% and a residual activity [3] of 100%. For the same compound, the residual activity [4] was 100%, the residual activity [5] was 96% and the residual activity [6] was 100%. It also gave a residual activity [7] of 80%, a residual activity [8] of 100% and a residual activity [9] of 0%. For the same compound, the residual activity [10] was 85%, the residual activity [11] was 100% and the residual activity [12] was 100%. It also gave an inhibition [13] of 18.6%, a residual activity [14] of 100% and a residual activity [15] of 100%. The residual activity [16] was 95%, the residual activity [17] was 99% and the residual activity [18] was 75%. For the same compound, the residual activity [19] was 71%, the residual activity [20] was 100% and the residual activity [21] was 100%. For the same compound, the residual activity [22] was 100%, the residual activity [23] was 89% and the residual activity [24] was 76%. For the same compound, the residual activity [25] was 100%, the residual activity [26] was 92% and the inhibition [27] was 6.56%. The residual activity [28] was 81%, the residual activity [29] was 58% and the residual activity [30] was 75%. The residual activity [31] was 99%, the residual activity [32] was 85% and the residual activity [33] was 93%. For the same compound, the residual activity [34] was 96%, the residual activity [35] was 92% and the residual activity [36] was 96%. It also gave a residual activity [37] of 100%, a residual activity [38] of 98% and a residual activity [39] of 100%. The residual activity [40] was 85%, the residual activity [41] was 89% and the residual activity [42] was 83%. It also gave a residual activity [43] of 100%, a residual activity [44] of 100% and a residual activity [45] of 91%.
`C[C@@H](c1cccc(C#N)c1)n1cc(Cl)cc(C(N)=O)c1=N` [(S)-9s] gave a residual activity [1] of 95%, an inhibition [2] of 16.1% and a residual activity [3] of 100%. The residual activity [4] was 100%, the residual activity [5] was 100% and the residual activity [6] was 100%. It also gave a residual activity [7] of 77%, a residual activity [8] of 100% and a residual activity [9] of 100%. For the same compound, the residual activity [10] was 100%, the residual activity [11] was 88% and the residual activity [12] was 100%. The inhibition [13] was 13.8%, the residual activity [14] was 82% and the residual activity [15] was 81%. The residual activity [16] was 100%, the residual activity [17] was 100% and the residual activity [18] was 93%. The residual activity [19] was 71%, the residual activity [20] was 100% and the residual activity [21] was 100%. For the same compound, the residual activity [22] was 97%, the residual activity [23] was 97% and the residual activity [24] was 100%. The residual activity [25] was 92%, the residual activity [26] was 96% and the inhibition [27] was 10.1%. For the same compound, the residual activity [28] was 78%, the residual activity [29] was 67% and the residual activity [30] was 94%. The residual activity [31] was 99%, the residual activity [32] was 95% and the residual activity [33] was 80%. For the same compound, the residual activity [34] was 90%, the residual activity [35] was 100% and the residual activity [36] was 99%. The residual activity [37] was 100%, the residual activity [38] was 100% and the residual activity [39] was 100%. It also gave a residual activity [40] of 76%, a residual activity [41] of 100% and a residual activity [42] of 87%. It also gave a residual activity [43] of 96%, a residual activity [44] of 100% and a residual activity [45] of 86%.
